In patent US4252898A:
In brackets after ≈: the same amount, converted by molar mass. Like-named read-outs stand apart in the source and are kept apart here.

Columns and labels:
Group D Streptococcus = experiment: Disc-plate test; settings: read-out: Disc-Plate Zone Sizes
S. pyogenes C203 [1] = experiment: Therapy in experimental mouse infections; settings: Streptococcus pyogenes
[2] = system: Peptostreptococcus anaerobius 1428; experiment: Susceptibility of anaerobic bacterial isolates, agar dilution; format: cell-based; settings: 27 hours incubation
[3] = system: Fusobacterium symbiosum 1470; experiment: as above; format: cell-based; settings: 27 hours incubation
S. Aureus (3 strains) = experiment: Disc-plate test; settings: Staphylococcus aureus, read-out: Disc-Plate Zone Sizes
[4] = system: Actinomyces israelii W855; experiment: Susceptibility of anaerobic bacterial isolates, agar dilution; format: cell-based; settings: 27 hours incubation
[5] = system: Bacteroides corrodens 1874; experiment: as above; format: cell-based; settings: Eikenella corrodens, 27 hours incubation
[6] = system: Eubacterium aerofaciens 1235; experiment: as above; format: cell-based; settings: Collinsella aerofaciens, 27 hours incubation
[7] = system: Clostridium perfringens 81; experiment: microbe, parasite or virus in culture; format: cell-based; settings: Clostridium perfringens, 81, 27 h
[8] = system: Peptostreptococcus intermedium 1264; experiment: Susceptibility of anaerobic bacterial isolates, agar dilution; format: cell-based; settings: 27 hours incubation
S. aureus 3.55 = experiment: Agar-dilution test; settings: Staphylococcus aureus
[9] = system: Fusobacterium necrophorum 6054A; experiment: Susceptibility of anaerobic bacterial isolates, agar dilution; format: cell-based; settings: 27 hours incubation
gram positive bacteria = experiment: Antibacterial activity in standard test procedures
S. aureus 3055 = experiment: Therapy in experimental mouse infections; settings: Staphylococcus aureus, 3055, in Mus musculus
S. faecalis X-66 = experiment: Agar-dilution test; settings: Enterococcus faecalis, X66
[10] = system: Bacteroides melaninogenicus 1856/28; experiment: Susceptibility of anaerobic bacterial isolates, agar dilution; format: cell-based; settings: Prevotella intermedia, 27 hours incubation
[11] = system: Bacteroides melaninogenicus 2736; experiment: as above; format: cell-based; settings: 27 hours incubation
K. pneumoniae KL-14 = experiment: Disc-plate test; settings: Klebsiella pneumoniae, KL14, read-out: Disc-Plate Zone Sizes
S. typhosa SA-12 = experiment: Disc-plate test; settings: read-out: Disc-Plate Zone Sizes
S. pneumoniae I [12] = experiment: Disc-plate test; settings: Streptococcus pneumoniae, read-out: Disc-Plate Zone Sizes
Peptococcus prevoti 1281 = experiment: Susceptibility of anaerobic bacterial isolates, agar dilution; format: cell-based; settings: 27 hours incubation
P rettgeri PR-2 = experiment: Disc-plate test; settings: read-out: Disc-Plate Zone Sizes
[13] = system: Bacteroides fragilis ssp. fragilis 1936B; experiment: Susceptibility of anaerobic bacterial isolates, agar dilution; format: cell-based; settings: 27 hours incubation
S. pyogenes C203 [14] = experiment: Disc-plate test; settings: Streptococcus pyogenes, C203, read-out: Disc-Plate Zone Sizes
[15] = system: Bacteroides fragilis ssp. thetaiotaoimicron 1438; experiment: Susceptibility of anaerobic bacterial isolates, agar dilution; format: cell-based; settings: 27 hours incubation
S. aureus 3074 = experiment: Agar-dilution test; settings: Staphylococcus aureus
[16] = system: Bacteroides fragilis spp. fragilis 111; experiment: Susceptibility of anaerobic bacterial isolates, agar dilution; format: cell-based; settings: 27 hours incubation
[17] = system: Propionibacterium acnes 79; experiment: as above; format: cell-based; settings: Cutibacterium acnes, 27 hours incubation
[18] = system: Bacteroides fragilis ssp. fragilis 1877; experiment: as above; format: cell-based; settings: 27 hours incubation
[19] = system: Bacteroides vulgatis 1211; experiment: as above; format: cell-based; settings: 27 hours incubation
E. coli Ec-14 = experiment: Disc-plate test; settings: Escherichia coli, EC14, read-out: Disc-Plate Zone Sizes
[20] = system: Peptococcus asaccharolyticus 1302; experiment: Susceptibility of anaerobic bacterial isolates, agar dilution; format: cell-based; settings: Peptoniphilus asaccharolyticus, 27 hours incubation
[21] = system: Clostridium septicum 1128; experiment: as above; format: cell-based; settings: 27 hours incubation
S. pneumoniae I [22] = experiment: Therapy in experimental mouse infections; settings: Streptococcus pneumoniae
NRRL 11459 [23] = experiment: Inhibitor sensitivity of the producing strain (inhibitor in ISP #2 agar); format: cell-based, Streptomyces flocculus
Experimental: (§1) The cell wall sugars are determined using a modification of the procedure of M. Lechevalier, "Chemical Methods as Criteria for the Separation of Actinomycetes Into Genera", workshop sponsored by the subcommittee on Actionomycetes of the American Society of Microbology, Dr. Thoman G. Pridham, Convenor, held at the Institute of Microbology, Rutgurs University, New Brunswick, N.J., 1971. The isomer of diaminopimelic acid is determined using the method of B. Becker Appl. Microbiol., 11 421 ([…]). Amino acid analysis is determined with washed cell wall fragments. Melanoid pigments are determined using ISP #6 (peptone-yeast extract iron agar) and ISP #7 (tyrosine agar). Inhibitors are tested by incorporating varing concentrations of inhibitors into ISP #2 agar plates and streaking the culture on the surface. Starch hydrolysis is determined by testing for the presence of starch with iodine on ISP #4 agar plates. Temperature range, NaCl tolerance, pH range, and antibiotic sensitivity are done using ISP #2 agar medium. The range of temperatures are: 25°, 28°, 30°, 34°, 37°, 40°, 45°, 50°, 55° C. NaCl tolerance is measured by adding NaCl to the agar to equal: 0, 1, 2, 3, 4, 5, 6, 8, 10, 12% and incubating at 30° C. for 7 days. Antibiotic sensitivity is determined using sensitivity discs padded onto seeded agar plates of ISP #2 medium and incubating at 30° C. for 14 days.

NRRL 11459 [24] = experiment: Antibiotic sensitivity of the producing strain (sensitivity discs on seeded ISP #2 agar); format: cell-based, Streptomyces flocculus; settings: 30° C., 14 days; also: key: +: sensitive (zones of inhibition); -: resistat (no zones of inhibition)
Experimental: as §1

[25] = NRRL11459, NRRL 11459, ISP #2 agar plates, read-out: Inhibitor sensitivity, MIC

CCC1OC(=O)CC(O)C(C)C(OC2OC(C)C(OC3CCC(O)C(C)O3)C(N(C)C)C2O)C(CC=O)CC(C)C(=O)C=CC2(C)OC2C1C (centres unmarked)
zone of inhibition at 100 µg/disc (Group D Streptococcus): 20 mm
ED50 (S. pyogenes C203 [1]): 4.65 mg/kg
MIC [2]: 2 µg/mL (≈ 2.81 µM)
MIC [3]: 4 µg/mL (≈ 5.62 µM)
zone of inhibition at 100 µg/disc (S. Aureus (3 strains)): 24 mm
MIC [4]: 4 µg/mL (≈ 5.62 µM)
MIC [5]: 32 µg/mL (≈ 45 µM)
MIC [6]: 2 µg/mL (≈ 2.81 µM)
MIC [7]: 2 µg/mL (≈ 2.81 µM)
MIC [8]: 16 µg/mL (≈ 22.5 µM)
MIC (S. aureus 3.55): 1 µg/mL (≈ 1.4 µM)
MIC [9]: 16 µg/mL (≈ 22.5 µM)
antibacterial activity (gram positive bacteria): exhibit antibacterial activity, particularly against gram positive bacteria
ED50 (S. aureus 3055): 5 mg/kg
MIC (S. faecalis X-66): 4 µg/mL (≈ 5.62 µM)
MIC [10]: 64 µg/mL (≈ 89.9 µM)
MIC [11]: 32 µg/mL (≈ 45 µM)
zone of inhibition at 100 µg/disc (K. pneumoniae KL-14): 0 mm
zone of inhibition at 100 µg/disc (S. typhosa SA-12): 9.9 mm
zone of inhibition at 100 µg/disc (S. pneumoniae I [12]): 35 mm
MIC (Peptococcus prevoti 1281): 32 µg/mL (≈ 45 µM)
zone of inhibition at 100 µg/disc (P rettgeri PR-2): 8 mm
MIC [13]: 32 µg/mL (≈ 45 µM)
zone of inhibition at 100 µg/disc (S. pyogenes C203 [14]): 20 mm
MIC [15]: 8 µg/mL (≈ 11.2 µM)
MIC (S. aureus 3074): 2 µg/mL (≈ 2.81 µM)
MIC [16]: 64 µg/mL (≈ 89.9 µM)
MIC [17]: 2 µg/mL (≈ 2.81 µM)
MIC [18]: 16 µg/mL (≈ 22.5 µM)
MIC [19]: 8 µg/mL (≈ 11.2 µM)
zone of inhibition at 100 µg/disc (E. coli Ec-14): 10.2 mm
MIC [20]: 2 µg/mL (≈ 2.81 µM)
MIC [21]: 2 µg/mL (≈ 2.81 µM)

CCC1OC(=O)CC(O)C(C)C(OC2OC(C)C(OC3CCC(O)C(C)O3)C(N(C)C)C2O)C(CCO)CC(C)C(=O)C=CC2(C)OC2C1C (centres unmarked)
zone of inhibition at 300 µg/disc (Group D Streptococcus): 22.5 mm
ED50 (S. pyogenes C203 [1]): > 70 mg/kg
MIC [2]: 16 µg/mL (≈ 22.4 µM)
MIC [3]: 128 µg/mL (≈ 179 µM)
zone of inhibition at 300 µg/disc (S. Aureus (3 strains)): 27 mm
MIC [4]: 8 µg/mL (≈ 11.2 µM)
MIC [5]: 32 µg/mL (≈ 44.8 µM)
ED50 (S. pneumoniae I [22]): > 70 mg/kg
MIC [6]: 8 µg/mL (≈ 11.2 µM)
MIC [7]: 16 µg/mL (≈ 22.4 µM)
MIC [8]: 8 µg/mL (≈ 11.2 µM)
MIC (S. aureus 3.55): 32 µg/mL (≈ 44.8 µM)
MIC [9]: 128 µg/mL (≈ 179 µM)
antibacterial activity (gram positive bacteria): exhibit antibacterial activity, particularly against gram positive bacteria
ED50 (S. aureus 3055): > 70 mg/kg
MIC (S. faecalis X-66): 16 µg/mL (≈ 22.4 µM)
MIC [10]: 64 µg/mL (≈ 89.6 µM)
MIC [11]: 64 µg/mL (≈ 89.6 µM)
zone of inhibition at 300 µg/disc (K. pneumoniae KL-14): 11.3 mm
zone of inhibition at 300 µg/disc (S. typhosa SA-12): 8.8 mm
zone of inhibition at 300 µg/disc (S. pneumoniae I [12]): 36 mm
MIC (Peptococcus prevoti 1281): > 64 µg/mL
zone of inhibition at 300 µg/disc (P rettgeri PR-2): 8.6 mm
MIC [13]: 64 µg/mL (≈ 89.6 µM)
zone of inhibition at 300 µg/disc (S. pyogenes C203 [14]): 24.2 mm
MIC [15]: 16 µg/mL (≈ 22.4 µM)
MIC (S. aureus 3074): > 128 µg/mL
MIC [16]: 64 µg/mL (≈ 89.6 µM)
MIC [17]: 1 µg/mL (≈ 1.4 µM)
MIC [18]: 64 µg/mL (≈ 89.6 µM)
MIC [19]: 32 µg/mL (≈ 44.8 µM)
zone of inhibition at 300 µg/disc (E. coli Ec-14): 14 mm
MIC [20]: 8 µg/mL (≈ 11.2 µM)
MIC [21]: 16 µg/mL (≈ 22.4 µM)

O.O.O.O=C([O-])[C@H]([O-])[C@@H]([O-])C(=O)[O-].O=C([O-])[C@H]([O-])[C@@H]([O-])C(=O)[O-].[K+].[K+].[Sb+3].[Sb+3] [Antimony Potassium tartrate]
Inhibitor sensitivity, MIC (NRRL 11459 [23]; NRRL 11459, ISP #2 agar plates): 250 µg/mL

O=C([O-])CC(O)(CC(=O)[O-])C(=O)[O-].[Bi+3] [Bismuth Citrate]
Inhibitor sensitivity, MIC (NRRL 11459 [23]; NRRL 11459, ISP #2 agar plates): > 500 µg/mL

CN(C)c1ccc(C(=C2C=CC(=[N+](C)C)C=C2)c2ccc(N(C)C)cc2)cc1 [Crystal Violet]
MIC (NRRL 11459 [23]; [25]): 1 µg/mL

CC[C@H]1OC(=O)[C@H](C)[C@@H](O[C@H]2C[C@@](C)(OC)[C@@H](O)[C@H](C)O2)[C@H](C)[C@@H](O[C@@H]2O[C@H](C)C[C@H](N(C)C)[C@H]2O)[C@](C)(O)C[C@@H](C)C(=O)[C@H](C)[C@@H](O)[C@]1(C)O [Erythromycin]
Antibiotic sensitivity (NRRL 11459 [24]; 15 μg/disc): +

CC(=O)OCC1=C(C(=O)O)N2C(=O)[C@@H](NC(=O)Cc3cccs3)[C@H]2SC1 [Keflin]
Antibiotic sensitivity (NRRL 11459 [24]; 30 μg/disc): -

CCC[C@@H]1C[C@@H](C(=O)N[C@@H]([C@H]2O[C@H](SC)[C@H](O)[C@@H](O)[C@H]2O)[C@@H](C)O)N(C)C1 [Lincomycin]
Antibiotic sensitivity (NRRL 11459 [24]; 2 μg/disc): +

C[C@@H]1[C@H](O)[C@@H](C)/C=C/C=C/CC/C=C/C=C/C=C/C=C/C(O[C@H]2O[C@H](C)[C@@H](O)[C@H](N)[C@@H]2O)CC2O[C@](O)(CC(O)C(O)CCC(O)CC(O)CC(O)CC(=O)O[C@H]1C)CC(O)C2C(=O)O (some centres unmarked) [Nystatin]
Antibiotic sensitivity (NRRL 11459 [24]; 100 units/disc): -

O=[Te]([O-])[O-].[K+].[K+] [Potassium Tellurite]
Inhibitor sensitivity, MIC (NRRL 11459 [23]; NRRL 11459, ISP #2 agar plates): > 500 µg/mL

Cc1cc2nc3cc(C)c(N)cc3[n+](-c3ccccc3)c2cc1N.[Cl-] [Safranin]
Inhibitor sensitivity, MIC (NRRL 11459 [23]; NRRL 11459, ISP #2 agar plates): 10 µg/mL

[N-]=[N+]=[N-] [Sodium Azide]
MIC (NRRL 11459 [23]; NRRL11459, read-out: Inhibitor sensitivity, MIC): 10 µg/mL

O=[Se](O)O [Sodium Selenite]
MIC (NRRL 11459 [23]; [25]): 25 µg/mL

[H]/N=C(/N)N[C@H]1[C@H](O)[C@@H](O)[C@H](O[C@@H]2O[C@@H](C)[C@](O)(C=O)[C@H]2O[C@@H]2O[C@@H](CO)[C@H](O)[C@@H](O)[C@@H]2NC)[C@@H](N/C(N)=N\[H])[C@@H]1O [Streptomycin]
Antibiotic sensitivity (NRRL 11459 [24]; 10 μg/disc): +

CN(C)[C@@H]1C(O)=C(C(N)=O)C(=O)[C@@]2(O)C(O)=C3C(=O)c4c(O)cccc4[C@@](C)(O)[C@H]3C[C@@H]12 [Tetracycline]
Antibiotic sensitivity (NRRL 11459 [24]; 30 μg/disc): +

CC(=O)[O-].[Tl+] [Thallium Acetate]
Inhibitor sensitivity, MIC (NRRL 11459 [23]): < 10 µg/mL

CN[C@H](CC(C)C)C(=O)N[C@H]1C(=O)N[C@@H](CC(N)=O)C(=O)N[C@H]2C(=O)N[C@H]3C(=O)N[C@H](C(=O)N[C@H](C(=O)O)c4cc(O)cc(O)c4-c4cc3ccc4O)[C@H](O)c3ccc(c(Cl)c3)Oc3cc2cc(c3O[C@@H]2O[C@H](CO)[C@@H](O)[C@H](O)[C@H]2O[C@H]2C[C@](C)(N)[C@H](O)[C@H](C)O2)Oc2ccc(cc2Cl)[C@H]1O [Vancomycin]
Antibiotic sensitivity (NRRL 11459 [24]; 30 μg/disc): +

Polymixin B
Antibiotic sensitivity (NRRL 11459 [24]; 300 units/disc): +
